Source: patent publication US20240197695A1, “COMPOUND FOR PREVENTION OR TREATMENT OF KIDNEY DISEASE” (ONCOCROSS CO.,LTD, priority 2021, published 2024)
Like-named read-outs stand apart in the source and are kept apart here. Marks after values point to notes of the source that are not given here.

Columns and labels:
Assay type in all cases: in vivo, mice (C57BL/6)
[1] = test system: diabetic nephrosis animal models; conditions: for CRE, Mean / GLU, Mean / T-CHO, Mean: after observation period, fasted
Procedure: (§1) STZ (Sigma-aldrich, S0130, 40 mg/kg b.w., in 0.1 M citrate buffer pH 4.5) was intraperitoneally administered to 9-week-old male mice (C57BL/6) once/1 day for 5 days to perform a first disease induction. After 7 weeks of the first induction, a second induction was performed using the same method as the first induction. For 5 days of an STZ administration period for the first induction, 10% sucrose was administered as drinking water. In addition, after 14 days of the second administration, blood glucose levels were confirmed to confirm the induction rate, and the induced animals were separated into groups. Experimental substances (R)-4-{(R)-1-[7-(3,4,5-trimethoxy-phenyl)-[1,6] naphthyridin-5-yloxy]-ethyl}pyrrolidin-2-one (BI-1002494) and cromolyn (OC-101) were administered orally into the stomach at 10 mL/kg using an administration syringe (sonde) before 16:00 daily for 12 weeks at a frequency of 7 days/week at doses shown in Table 1 below, and dexamethasone was orally administered as a positive control substance.
(§2) After the observation period for mice of each group in Example 1 was terminated, all surviving animals were fasted in the same manner as when measuring blood glucose levels, and then anesthetized by inhaling isoflurane, and blood was collected from the abdominal vena cava through laparotomy. After the blood collection was completed, the veins and arteries were cut under anesthesia and exsanguinated. The collected blood was left at room temperature for 30 minutes or more and then centrifuged at 3,000 rpm for 20 minutes. Thereafter, glucose, Blood urea nitrogen (BUN), and creatinine were analyzed using an automated blood biochemistry analyzer (Hitachi 3100, Hitachi Co. Ltd., Japan). Indoxyl sulfate (a substance that was mainly produced in the intestines to cause renal injury, and a substance that caused end-stage renal failure by advancing renal function damage in patients with renal failure during hemodialysis) was analyzed using LC MS/MS. In addition, blood insulin was analyzed according to a method represented by a commercial Mouse Insulin ELISA KIT (#AKRIN-011T, Sibayagi Co. Ltd., Japan).

[2] = test system: diabetic nephrosis animal models; assay: Blood insulin (Mouse Insulin ELISA KIT) and HOMA-IR; conditions: for HOMA-IR, Mean / Insulin, Mean: after observation period, fasted
Procedure: as §1, §2

[3] = test system: diabetic nephrosis animal models; assay: Histopathological change (H&E) in liver, kidney, pancreas; conditions: count in group of 10 animals
Procedure: as §1
At the end of the observation period, the mice in each group of Example 1 were confirmed to be dead, and the liver, kidney, and pancreas were extracted and fixed with 10% neutral buffered formalin (NBF) in at least 20 times the tissue volume. The fixed tissue was sectioned to a thickness of approximately 4 mm and then produced into a paraffin block through general tissue processing and embedding processes. Thereafter, the tissue was sectioned to a thickness of 4 μm using a rotary microtome, and then H&E staining was performed, and histopathological changes were observed.

[4] = Drinking water intake of mice in diabetic nephrosis model; parameters: unit not given here
Procedure: as §1

[5] = Feed intake of mice in diabetic nephrosis model; parameters: Feed intake, Mean: unit not given here
Procedure: as §1

[6] = test system: diabetic nephrosis animal models; assay: Changes in blood glucose levels (tail vein, blood glucose level meter)
Procedure: as §1
Before disease induction, excluding week 9 of administration of experimental substances to mice in each group of Example 1 above, after 2 weeks after the first induction (based on a first administration date), and after 6 weeks and 2 weeks of the second induction (based on the first administration date), blood was collected from the tail vein and blood glucose levels were measured using a blood glucose level meter (Accu-Check, Roche), and fasting was performed for 4 hours from 9:30 a.m. to 1:30.

[7] = test system: diabetic nephrosis animal models; assay: Blood indoxyl sulfate by LC MS/MS; conditions: after observation period, fasted
Procedure: as §1, §2

[8] = Body weights of mice in diabetic nephrosis model
Procedure: as §1

Structure (SMILES): C[C@@H]1C[C@H]2[C@@H]3CCC4=CC(=O)C=C[C@]4(C)[C@@]3(F)[C@@H](O)C[C@]2(C)[C@@]1(O)C(=O)CO [Dexa, dexamethasone, reference compound]
- CRE, Mean ([1]; 2 mg/kg/day oral): 0.1 mg/dL
- GLU, Mean ([1]; 2 mg/kg/day oral): 335.6^# mg/dL
- T-CHO, Mean ([1]; 2 mg/kg/day oral): 139.0 mg/dL
- HOMA-IR, Mean ([2]; 2 mg/kg/day oral): 11.2^#
- Insulin, Mean ([2]; 2 mg/kg/day oral): 0.6 ng/mL
- Kidney: Medullar apoptosis ([3]; G3, 2 mg/kg oral): 1
- Kidney: Medullar mineralization ([3]; G3, 2 mg/kg oral): 1
- Kidney: NHL ([3]; G3, 2 mg/kg oral): 6
- Kidney: bowman's capsule hyperplasia ([3]; G3, 2 mg/kg oral): 2
- Kidney: pappillary mineralization ([3]; G3, 2 mg/kg oral): 0
- Liver: Apoptosis ([3]; G3, 2 mg/kg oral): 4
- Liver: Cytoplasmic glycogen ([3]; G3, 2 mg/kg oral): 0
- Liver: Eosinophlic focus of cellular alteration ([3]; G3, 2 mg/kg oral): 3
- Liver: Mononuclear cell infiltrate ([3]; G3, 2 mg/kg oral): 0
- Liver: NHL ([3]; G3, 2 mg/kg oral): 5
- Pancrease: Apoptosis ([3]; G3, 2 mg/kg oral): 0
- Pancrease: NHL ([3]; G3, 2 mg/kg oral): 8
- Pancrease: islet degeneration ([3]; G3, 2 mg/kg oral): 1
- Pancrease: islet hypertrophy ([3]; G3, 2 mg/kg oral): 0
- Pancrease: islet, mononuclear cell infillitrate ([3]; G3, 2 mg/kg oral): 1
- Drinking water intake, Mean ([4]; 2 mg/kg/day oral, week 0): 7.07
- Drinking water intake, Mean ([4]; 2 mg/kg/day oral, week 1): 7.73
- Drinking water intake, Mean ([4]; 2 mg/kg/day oral, week 2): 7.06
- Drinking water intake, Mean ([4]; 2 mg/kg/day oral, week 3): 7.69
- Drinking water intake, Mean ([4]; 2 mg/kg/day oral, week 4): 7.69
- Drinking water intake, Mean ([4]; 2 mg/kg/day oral, week 5): 7.10
- Drinking water intake, Mean ([4]; 2 mg/kg/day oral, week 6): 7.35
- Drinking water intake, Mean ([4]; 2 mg/kg/day oral, week 7): 7.19
- Drinking water intake, Mean ([4]; 2 mg/kg/day oral, week 8): 7.83
- Drinking water intake, Mean ([4]; 2 mg/kg/day oral, week 9): 7.45
- Drinking water intake, Mean ([4]; 2 mg/kg/day oral, week 10): 7.19
- Feed intake, Mean ([5]; 2 mg/kg/day oral, week 0): 6.71
- Feed intake, Mean ([5]; 2 mg/kg/day oral, week 1): 5.48
- Feed intake, Mean ([5]; 2 mg/kg/day oral, week 2): 5.80
- Feed intake, Mean ([5]; 2 mg/kg/day oral, week 3): 5.84
- Feed intake, Mean ([5]; 2 mg/kg/day oral, week 4): 5.89
- Feed intake, Mean ([5]; 2 mg/kg/day oral, week 5): 5.65
- Feed intake, Mean ([5]; 2 mg/kg/day oral, week 6): 5.30
- Feed intake, Mean ([5]; 2 mg/kg/day oral, week 7): 5.56
- Feed intake, Mean ([5]; 2 mg/kg/day oral, week 8): 5.21
- Feed intake, Mean ([5]; 2 mg/kg/day oral, week 9): 5.29
- Feed intake, Mean ([5]; 2 mg/kg/day oral, week 10): 5.64
- Blood glucose level, Mean ([6]; 2 mg/kg/day oral, week 0, 4 h fasting, in mg/dL (unit assumed)): 307.1
- Blood glucose level, Mean ([6]; 2 mg/kg/day oral, week 2, 4 h fasting, in mg/dL (unit assumed)): 309.1
- Blood glucose level, Mean ([6]; 2 mg/kg/day oral, week 4, 4 h fasting, in mg/dL (unit assumed)): 329.2
- Blood glucose level, Mean ([6]; 2 mg/kg/day oral, week 6, 4 h fasting, in mg/dL (unit assumed)): 336.9
- Blood glucose level, Mean ([6]; 2 mg/kg/day oral, week 8, 4 h fasting): 286.1^#
- Blood glucose level, Mean ([6]; 2 mg/kg/day oral, week 10, 4 h fasting, in mg/dL (unit assumed)): 331.4
- Indoxyl sulfate, Mean ([7]; 2 mg/kg/day oral): 2.5^# μg/mL
- Body weight, Mean ([8]; 2 mg/kg/day oral, week 0): 24 g
- Body weight, Mean ([8]; 2 mg/kg/day oral, week 1): 23.5 g
- Body weight, Mean ([8]; 2 mg/kg/day oral, week 2): 23.6 g
- Body weight, Mean ([8]; 2 mg/kg/day oral, week 3): 23.6 g
- Body weight, Mean ([8]; 2 mg/kg/day oral, week 4): 23.6 g
- Body weight, Mean ([8]; 2 mg/kg/day oral, week 5): 23.7 g
- Body weight, Mean ([8]; 2 mg/kg/day oral, week 6): 23.6 g
- Body weight, Mean ([8]; 2 mg/kg/day oral, week 7): 23.8 g
- Body weight, Mean ([8]; 2 mg/kg/day oral, week 8): 23.6 g
- Body weight, Mean ([8]; 2 mg/kg/day oral, week 10): 23.3 g

Structure (SMILES): O=C(O)c1cc(=O)c2c(OCC(O)COc3cccc4oc(C(=O)O)cc(=O)c34)cccc2o1 [OC-101, cromolyn, reference compound]
- GLU compared to disease control group ([1]; 50 mg/kg administered group): decreased statistically significantly
- CRE, Mean ([1]; 50 mg/kg/day oral): 0.1 mg/dL
- GLU, Mean ([1]; 50 mg/kg/day oral): 282.6^# mg/dL
- T-CHO, Mean ([1]; 50 mg/kg/day oral): 139.3 mg/dL
- HOMA-IR compared to disease control group ([2]; 50 mg/kg administered group): decreased statistically significantly
- HOMA-IR, Mean ([2]; 50 mg/kg/day oral): 8.8^#
- Insulin, Mean ([2]; 50 mg/kg/day oral): 0.5 ng/mL
- Kidney: Medullar apoptosis ([3]; G6/G7, 50 mg/kg oral): 0
- Kidney: Medullar mineralization ([3]; G6/G7, 50 mg/kg oral): 1
- Kidney: NHL ([3]; G6/G7, 50 mg/kg oral): 8
- Kidney: bowman's capsule hyperplasia ([3]; G6/G7, 50 mg/kg oral): 1
- Kidney: pappillary mineralization ([3]; G6/G7, 50 mg/kg oral): 0
- Liver: Apoptosis ([3]; G6/G7, 50 mg/kg oral): 2
- Liver: Cytoplasmic glycogen ([3]; G6/G7, 50 mg/kg oral): 0
- Liver: Eosinophlic focus of cellular alteration ([3]; G6/G7, 50 mg/kg oral): 1
- Liver: Mononuclear cell infiltrate ([3]; G6/G7, 50 mg/kg oral): 3
- Liver: NHL ([3]; G6/G7, 50 mg/kg oral): 5
- Pancrease: Apoptosis ([3]; G6/G7, 50 mg/kg oral): 0
- Pancrease: NHL ([3]; G6/G7, 50 mg/kg oral): 6
- Pancrease: islet degeneration ([3]; G6/G7, 50 mg/kg oral): 2
- Pancrease: islet hypertrophy ([3]; G6/G7, 50 mg/kg oral): 2
- Pancrease: islet, mononuclear cell infillitrate ([3]; G6/G7, 50 mg/kg oral): 1
- Drinking water intake, Mean ([4]; 50 mg/kg/day oral, week 0): 6.78
- Drinking water intake, Mean ([4]; 50 mg/kg/day oral, week 1): 8.11
- Drinking water intake, Mean ([4]; 50 mg/kg/day oral, week 2): 7.68
- Drinking water intake, Mean ([4]; 50 mg/kg/day oral, week 3): 6.99
- Drinking water intake, Mean ([4]; 50 mg/kg/day oral, week 4): 7.23
- Drinking water intake, Mean ([4]; 50 mg/kg/day oral, week 5): 6.78
- Drinking water intake, Mean ([4]; 50 mg/kg/day oral, week 6): 7.80
- Drinking water intake, Mean ([4]; 50 mg/kg/day oral, week 7): 7.06
- Drinking water intake, Mean ([4]; 50 mg/kg/day oral, week 8): 7.17
- Drinking water intake, Mean ([4]; 50 mg/kg/day oral, week 9): 7.09
- Drinking water intake, Mean ([4]; 50 mg/kg/day oral, week 10): 6.76
- Feed intake, Mean ([5]; 50 mg/kg/day oral, week 0): 6.23
- Feed intake, Mean ([5]; 50 mg/kg/day oral, week 1): 5.98
- Feed intake, Mean ([5]; 50 mg/kg/day oral, week 2): 6.35
- Feed intake, Mean ([5]; 50 mg/kg/day oral, week 3): 5.47
- Feed intake, Mean ([5]; 50 mg/kg/day oral, week 4): 4.28
- Feed intake, Mean ([5]; 50 mg/kg/day oral, week 5): 4.51
- Feed intake, Mean ([5]; 50 mg/kg/day oral, week 6): 4.29
- Feed intake, Mean ([5]; 50 mg/kg/day oral, week 7): 4.41
- Feed intake, Mean ([5]; 50 mg/kg/day oral, week 8): 4.37
- Feed intake, Mean ([5]; 50 mg/kg/day oral, week 9): 4.51
- Feed intake, Mean ([5]; 50 mg/kg/day oral, week 10): 4.28
- Blood glucose level, Mean ([6]; 50 mg/kg/day oral, week 0, 4 h fasting, in mg/dL (unit assumed)): 300.9
- Blood glucose level, Mean ([6]; 50 mg/kg/day oral, week 2, 4 h fasting, in mg/dL (unit assumed)): 336.6
- Blood glucose level, Mean ([6]; 50 mg/kg/day oral, week 4, 4 h fasting): 271.1^#
- Blood glucose level, Mean ([6]; 50 mg/kg/day oral, week 6, 4 h fasting): 295.5^#
- Blood glucose level, Mean ([6]; 50 mg/kg/day oral, week 8, 4 h fasting): 259.9^#
- Blood glucose level, Mean ([6]; 50 mg/kg/day oral, week 10, 4 h fasting): 247.8^#
- Indoxyl sulfate, Mean ([7]; 50 mg/kg/day oral): 2.0 µg/mL
- Body weight, Mean ([8]; 50 mg/kg/day oral, week 0): 23.9 g
- Body weight, Mean ([8]; 50 mg/kg/day oral, week 1): 23.4 g
- Body weight, Mean ([8]; 50 mg/kg/day oral, week 2): 23.5 g
- Body weight, Mean ([8]; 50 mg/kg/day oral, week 3): 23.3 g
- Body weight, Mean ([8]; 50 mg/kg/day oral, week 4): 23.5 g
- Body weight, Mean ([8]; 50 mg/kg/day oral, week 5): 23.4 g
- Body weight, Mean ([8]; 50 mg/kg/day oral, week 6): 23.5 g
- Body weight, Mean ([8]; 50 mg/kg/day oral, week 7): 23.4 g
- Body weight, Mean ([8]; 50 mg/kg/day oral, week 8): 23.2 g
- Body weight, Mean ([8]; 50 mg/kg/day oral, week 10): 23 g
